Source: ChEMBL document CHEMBL4043183, “Elucidation of a carboxylate O-methyltransferase NcmP in nocamycin biosynthetic pathway” (2017)
Values after ≈ are worked out from the molar mass of the structure shown.

How the values were obtained:
Assay type in all cases: functional
Bacillus subtilis = assay: Antibacterial activity against Bacillus subtilis CCTCC AB2013121 by broth microdilution method
Bacillus thuringiensis = assay: Antibacterial activity against Bacillus thuringiensis CCTCC AB2013119 by broth microdilution method
Staphylococcus aureus = assay: Antibacterial activity against Staphylococcus aureus ATCC 29213 by broth microdilution method
Micrococcus luteus = assay: Antibacterial activity against Micrococcus luteus CCTCC AB2013120 by broth microdilution method
Enterococcus faecalis = assay: Antibacterial activity against Enterococcus faecalis ATCC 29212 by broth microdilution method

| MIC (Bacillus subtilis) | MIC (Bacillus thuringiensis) | MIC (Staphylococcus aureus) | MIC (Micrococcus luteus) | MIC (Enterococcus faecalis) | SMILES |
| --- | --- | --- | --- | --- | --- |
| > 128 µg/mL | 32 µg/mL (≈ 65.4 µM) | > 128 µg/mL | > 128 µg/mL | > 128 µg/mL | CC(/C=C/C(O)=C1/C(=O)CNC1=O)=C\[C@@H](C)[C@H]1O[C@@]23O[C@H](C(=O)C[C@]2(C)O[C@H](C)[C@@H]3C(=O)O)[C@@H]1C |
| > 128 µg/mL | 0.5 µg/mL (≈ 0.993 µM) | 32 µg/mL (≈ 63.5 µM) | 16 µg/mL (≈ 31.8 µM) | 4 µg/mL (≈ 7.94 µM) | COC(=O)[C@H]1[C@@H](C)O[C@@]2(C)CC(=O)[C@H]3O[C@@]12O[C@H]([C@H](C)/C=C(C)/C=C/C(O)=C1/C(=O)CNC1=O)[C@H]3C |
